By MTD is commonly meant the largest dose that counted as tolerated. A higher MTD goes with better tolerability.

For data set [1], the target named is T1, Tat-TAR complex (recombinant Tat, synthetic TAR duplex) (Human immunodeficiency virus type 1 group M subtype B, UniProt P04608).
T1 construct: purchased Medical Research Council (MRC), Cambridge, U.K
The data set can be described thus: competition Tat-TAR gel-shift assay. In kind it is binding, HIV-1. The source says: The in vitro inhibition of the interaction between Tat and TAR can be shown by a competition Tat-TAR gel-shift assay. Through binding of the protein (recombinant Tat, Medical Research Council (MRC), Cambridge, U.K. - for the sequence of recombinant Tat see Churcher et al., J. Mol. Biol. 230, 90-110 (1993)) to the RNA (synthetic TAR duplex, Genset, Paris, France; for the sequence see Hamy et al., J. Mol. Biol. 230, 111-123 (1993)), the overall size and the charge/weight ratio of the formed duplex are changed, so that electrophoretic migration through a native polyacrylamide gel is affected. By radioactive labelling of the RNA and subsequent autoradiography, free RNA and complexes can be discriminated based on their relative positions in the gel (Hamy et al., J. Mol. Biol. 230, 111-123 (1993)). If the binding reaction with a test substance is able to prevent the protein binding to the radiolabelled RNA, this competition for binding can be visualized on the autoradiography as a decreased intensity of the retarded band. In more detail, compounds of the formula I are tested as follows:
The 14-mer strand of duplex TAR-RNA is labelled in the presence of T4 polynucleotide kinase (New England Biolabs, Beverly, MA, USA) using [γ-^32P]ATP (Amersham, Little Chalfont, UK), 10 mM DTT (=dithiothreitol), 50 mM Tris.HCI (pH 7.4, Tris = Tris(hydroxymethyl)aminomethane), 0.77 % (w/v) spermidine (Fluka, Switzerland) and 10 units T4 polynucleotide kinase incubated at 37 °C for 20 min. After heat-treatment (65 °C, 10 min) for enzyme inactivation, the unincorporated [γ-^32P]ATP is removed by chromatography through a Sephadex NAP-10 column (Pharmacia, Uppsala, Sweden) equilibrated with water. Prior to the in-vitro-binding reaction, the labelled 14-mer is annealed to 1.5 equivalents of unlabelled 17-mer by heating to 90 C for 3 min, followed by slow cooling down to 0 °C. […] The CD50-values that are obtained are preferably in the range of from 10 x 10^-9 to 10 x 10^-6 M, more preferably from 10 x 10^-9 to 0.5 x 10^-6 M.

A further data set relates to HIV-1/LAV.04. As to the kind of experiment: inhibition of viral growth of HIV-1 in PBLs (RT activity in cell supernatants). In kind it is cell-based. Particulars: concentration at which 90 % reduction of RT activity versus untreated control is observed; human PBLs infected with HIV-1/LAV.04.
A short description of data set [2]: maximal tolerated dose (MTD) determination in mice. The format is in vivo. The protocol:
After single application of up to 50 mg/kg by i.v. administration to mice no signs of overt toxicity are observed during 8 days of observation. In detail, the assay is conducted as follows: The assay is designed for the determination of the maximal tolerated dose (MTD) For the MTD determination, three six to eight week old female Balb/c AnCbif Tif mice (Ciba animal farm, Sisseln, Switzerland) per dose group are treated once i.v. The dosage is increased until toxic effects are observed within 7 days after drug treatment. After 7 days the animals are euthanasized and organs are macroscopically inspected. The MTD is the dose where all three animals still survive. For example, when the compounds of examples 2 or 4, trans-5-(Acetoacetylamino)-2-[2-{4-(4,5-dihydro-3-methyl-5-oxo-1H-pyrazol-1-yl)-2-sulfophenyl]ethenyl]-benzenesulfonic acid or N,N'-Bis(trans-4-{2-[4-(3-methyl-5-oxo-4,5-dihydro-1H.-pyrazol-1-yl)-2-sulfo-phenyl]-vinyl}-2-sulfophenyl)-[1,3,5]triazine-2,4,6-triamine, are dissolved in sterile sodium chloride solution 0.9%, the MTD after i.v. administration is > 50 mg/kg.

The mark [3] stands for this setting: concentration giving 50 % decrease in intensity of the retarded band (Tat-TAR complex), 20 nM recombinant Tat, read-out: CD50 (the source's name).

Structures can show the parent of a compound that is named as a salt. Where two headings read alike, the source gives them in different places. Where only a bound is given, the exact number is not on record here.

T1 sequence (P04608 whole entry, one chain of several): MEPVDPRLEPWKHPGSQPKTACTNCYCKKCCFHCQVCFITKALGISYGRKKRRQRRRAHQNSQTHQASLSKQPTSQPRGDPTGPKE
Procedure for HIV-1/LAV.04: In brief, Peripheral Blood Mononuclear Lymphocytes (PBLs) are obtained from the blood of healthy volunteers by leukapheresis. Cells (1 x 10^6/ml) are cultured for 2 days in RPMI-1640 (Gibco), supplemented with 10 % heat-inactivated fetal calf serum (Gibco), 50 mg/ml streptomycin, 50 U/ml penicillin (Amimed), 2 nM glutamine and 10 mM hepes buffer (Gibco). Stimulated lymphocytes are obtained by culturing in the presence of PHA (0.25 mg/ml; Wellcome diagnostics, Templehill, Dartford, England). PHA-lymphocyte stimulation is confirmed by the increase in cell size (Scattergram, FACS analysis). Cells are exposed to HIV-1/LAV.04 (see Barre-Sinoussi et al., Science 220, 868-871 (1983)) for 6 h. […] Medium is changed every 3 days and activity of viral reverse transcriptase (RT activity) is determined in cell supernatants, serving as a measure for the presence of virus and thus of progression of infection according to known procedures (see Willey et al., J. Virol. 62, 353-8 (1991) for details of the method). In brief, RT determination is possible as follows: The RT activity is determined in 50mM Tris (α,α,α--tris(hydroxymethyl)methylamine, ultra pure, Merck, Federal Republic of Germany) pH 7.8; 75mM of KCl, 2mM of dithiothreitol, 5mM of MgCl2; 0.05% Nonidet P-40 (detergent; Sigma, Switzerland); 50 µg/ml of polyadenylic acid (Pharmacia, Sweden); and 1.6 µg/ml of dT(12-18) (Sigma, Switzerland). […]

For `CC(=O)CC(=O)Nc1ccc(/C=C/c2ccc(N3N=C(C)CC3=O)cc2S(=O)(=O)O)c(S(=O)(=O)O)c1` [Example 2, trans-5-(Acetoacetylamino)-2-[2-{4-(4,5-dihydro-3-methyl-5-oxo-1H-pyrazol-1-yl)-2-sulfophenyl}ethenyl]-benzenesulfonic acid], in data set [1], the IC50 was 0.02 µM. The compound also showed an ED90 with HIV-1/LAV.04 of 30 µM. This compound also had an MTD at 7 days in data set [2] (female, Balb/c AnCbif Tif, mouse, in vivo, iv) of over 50 mg/kg.

Regarding `CC1=NN(c2ccc(/C=C/c3ccc(Nc4nc(Cl)nc(Nc5ccc(/C=C/c6ccc(N7N=C(C)CC7=O)cc6S(=O)(=O)O)cc5S(=O)(=O)O)n4)c(S(=O)(=O)O)c3)c(S(=O)(=O)O)c2)C(=O)C1` [Example 3, N,N'-Bis(trans-4-{2-[4-(3-methyl-5-oxo-4,5-dihydro-1.H.-pyrazol-1-yl)-2-sulfophenyl]-vinyl}-2-sulfophenyl)-2-chloro-[1,3,5]triazine-4,6-diamine], the IC50 in data set [1] (setting [3]) was determined as 0.05 µM. In addition, in the data set on HIV-1/LAV.04, the ED90 amounted to 20 µM.

Consider `CC1=NN(c2ccc(/C=C/c3ccc(Nc4nc(N)nc(Nc5ccc(/C=C/c6ccc(N7N=C(C)CC7=O)cc6S(=O)(=O)O)cc5S(=O)(=O)O)n4)c(S(=O)(=O)O)c3)c(S(=O)(=O)O)c2)C(=O)C1` [Example 4, N,N'-Bis(trans-4-{2-[4-(3-methyl-5-oxo-4,5-dihydro-1.H.-pyrazol-1-yl)-2-sulfophenyl]-vinyl}-2-sulfophenyl)-[1,3,5]triazine-2,4,6-triamine], for which the IC50 in data set [1] (setting [3]) is 0.05 µM. This compound also yielded a maximal tolerated dose (MTD) in data set [2] (single i.v. administration, female mice, dissolved in sterile sodium chloride solution 0.9%, dose where all three animals still survive, 10080 min) of over 50 mg/kg.

For `CC1=NN(c2ccc(/C=C/c3ccc(NC(=O)Nc4ccc(/C=C/c5ccc(N6N=C(C)C(N=Nc7ccccc7C(=O)O)C6=O)cc5S(=O)(=O)O)cc4S(=O)(=O)O)c(S(=O)(=O)O)c3)c(S(=O)(=O)O)c2)C(=O)C1N=Nc1ccccc1C(=O)O` (stereo not drawn) [Example 5, N,N'-Bis(trans-4-{2-[4-(3-methyl-5-oxo-4-(o-carboxyphenylazo)-4,5-dihydro-1.H.-pyrazol-1-yl)-2-sulfo-phenyl]-vinyl}-2-sulfophenyl)-urea tetrasodium salt], the IC50 in data set [1] (setting [3]) was determined as 0.07 µM.

The values above are taken from patent EP1261587B1, “STILBENE DERIVATIVES, THEIR PREPARATION AND THEIR USE AS ANTIVIRAL AGENTS” (priority 1999, dated 2001).
